Experimental data taken from PubChem BioAssay (NCI).
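Results reflect a 48-hour exposure of cells in 96-well plates to compound at five concentrations. At the GI50, growth is halved. Definition used: TGI = concentration required for complete inhibition of growth.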

How the values were obtained:
Test in all cases: DTP human tumour cell line panel, 48 h
786-0 renal = test system: 786-0 renal
A498 renal = test system: A498 renal
A549 NSCLC = test system: A549 NSCLC
ACHN renal = test system: ACHN renal
BT-549 breast = test system: BT-549 breast
CAKI-1 renal = test system: CAKI-1 renal
COLO 205 colon = test system: COLO 205 colon
DU-145 prostate = test system: DU-145 prostate
EKVX NSCLC = test system: EKVX NSCLC
HCC-2998 colon = test system: HCC-2998 colon
HCT-116 colon = test system: HCT-116 colon
HCT-15 colon = test system: HCT-15 colon
HL-60(TB) leukemia = test system: HL-60(TB) leukemia
HOP-62 NSCLC = test system: HOP-62 NSCLC
HOP-92 NSCLC = test system: HOP-92 NSCLC
HS 578T breast = test system: HS 578T breast
HT29 colon = test system: HT29 colon
IGROV1 ovarian = test system: IGROV1 ovarian
KM12 colon = test system: KM12 colon
LOX IMVI melanoma = test system: LOX IMVI melanoma
M14 melanoma = test system: M14 melanoma
MALME-3M melanoma = test system: MALME-3M melanoma
MCF7 breast = test system: MCF7 breast
MDA-MB-231 breast = test system: MDA-MB-231 breast
MDA-MB-435 = test system: MDA-MB-435
MOLT-4 leukemia = test system: MOLT-4 leukemia
NCI-H226 lung = test system: NCI-H226 lung
NCI-H522 lung = test system: NCI-H522 lung
NCI/ADR-RES ovarian = test system: NCI/ADR-RES ovarian
OVCAR-3 ovarian = test system: OVCAR-3 ovarian
OVCAR-4 ovarian = test system: OVCAR-4 ovarian
OVCAR-5 ovarian = test system: OVCAR-5 ovarian
OVCAR-8 ovarian = test system: OVCAR-8 ovarian
PC-3 prostate = test system: PC-3 prostate
RPMI-8226 leukemia = test system: RPMI-8226 leukemia
RXF 393 renal = test system: RXF 393 renal
SF-268 CNS = test system: SF-268 CNS
SF-295 CNS = test system: SF-295 CNS
SF-539 CNS = test system: SF-539 CNS
SK-MEL-2 melanoma = test system: SK-MEL-2 melanoma
SK-MEL-28 melanoma = test system: SK-MEL-28 melanoma
SK-MEL-5 melanoma = test system: SK-MEL-5 melanoma
SK-OV-3 ovarian = test system: SK-OV-3 ovarian
SN12C renal = test system: SN12C renal
SNB-19 CNS = test system: SNB-19 CNS
SNB-75 CNS = test system: SNB-75 CNS
SR leukemia = test system: SR leukemia
SW-620 colon = test system: SW-620 colon
T-47D breast = test system: T-47D breast
TK-10 renal = test system: TK-10 renal
U251 CNS = test system: U251 CNS
UACC-257 melanoma = test system: UACC-257 melanoma
UACC-62 melanoma = test system: UACC-62 melanoma
UO-31 renal = test system: UO-31 renal

## COc1ccc2c(c1)CC[C@@H]1[C@@H]2CC[C@]2(C)c3[nH]ncc3C[C@@H]12
786-0 renal
  GI50: 18.2 µM
  TGI: > 50 µM
A498 renal
  GI50: 25.9 µM
  TGI: > 50 µM
A549 NSCLC
  GI50: 15.2 µM
  TGI: > 50 µM
ACHN renal
  GI50: 19 µM
  TGI: > 50 µM
BT-549 breast
  GI50: 26 µM
  TGI: > 50 µM
CAKI-1 renal
  GI50: 16.2 µM
  TGI: 48.8 µM
COLO 205 colon
  GI50: 14.5 µM
  TGI: > 50 µM
DU-145 prostate
  GI50: 20.6 µM
  TGI: > 50 µM
EKVX NSCLC
  GI50: 16.3 µM
  TGI: > 50 µM
HCC-2998 colon
  GI50: 13.7 µM
  TGI: 35.3 µM
HCT-116 colon
  GI50: 12.3 µM
  TGI: 31.9 µM
HCT-15 colon
  GI50: 16.8 µM
  TGI: > 50 µM
HL-60(TB) leukemia
  GI50: 1.64 µM
  TGI: 9.84 µM
HOP-62 NSCLC
  GI50: 24.7 µM
  TGI: > 50 µM
HOP-92 NSCLC
  GI50: 14.4 µM
  TGI: > 50 µM
HS 578T breast
  GI50: 17.5 µM
  TGI: > 50 µM
HT29 colon
  GI50: 15 µM
  TGI: > 50 µM
IGROV1 ovarian
  GI50: 21.9 µM
  TGI: > 50 µM
KM12 colon
  GI50: 10.1 µM
  TGI: 21.6 µM
LOX IMVI melanoma
  GI50: 10.8 µM
  TGI: 33.3 µM
M14 melanoma
  GI50: 16.4 µM
  TGI: > 50 µM
MALME-3M melanoma
  GI50: 11.7 µM
  TGI: 27 µM
MCF7 breast
  GI50: 13.4 µM
  TGI: 35.7 µM
MDA-MB-231 breast
  GI50: 11.5 µM
  TGI: > 50 µM
MDA-MB-435
  GI50: 14.7 µM
  TGI: 44.5 µM
MOLT-4 leukemia
  GI50: 1.8 µM
  TGI: 40.6 µM
NCI-H226 lung
  GI50: 16.6 µM
  TGI: > 50 µM
NCI-H522 lung
  GI50: 10.3 µM
  TGI: 27.4 µM
NCI/ADR-RES ovarian
  GI50: 15.8 µM
  TGI: > 50 µM
OVCAR-3 ovarian
  GI50: 8.9 µM
  TGI: 18.6 µM
OVCAR-4 ovarian
  GI50: 15.4 µM
  TGI: > 50 µM
OVCAR-5 ovarian
  GI50: 20.2 µM
  TGI: > 50 µM
OVCAR-8 ovarian
  GI50: 15.6 µM
  TGI: > 50 µM
PC-3 prostate
  GI50: 18.2 µM
  TGI: > 50 µM
RPMI-8226 leukemia
  GI50: 10.2 µM
  TGI: 32.8 µM
RXF 393 renal
  GI50: 11.3 µM
  TGI: 28 µM
SF-268 CNS
  GI50: 19.6 µM
  TGI: > 50 µM
SF-295 CNS
  GI50: 12.6 µM
  TGI: 27.5 µM
SF-539 CNS
  GI50: 14.8 µM
  TGI: 42 µM
SK-MEL-2 melanoma
  GI50: 17 µM
  TGI: > 50 µM
SK-MEL-28 melanoma
  GI50: 32.1 µM
  TGI: > 50 µM
SK-MEL-5 melanoma
  GI50: 8.16 µM
  TGI: 16.4 µM
SK-OV-3 ovarian
  GI50: 35.7 µM
  TGI: > 50 µM
SN12C renal
  GI50: 18 µM
  TGI: > 50 µM
SNB-19 CNS
  GI50: 21.4 µM
  TGI: > 50 µM
SNB-75 CNS
  GI50: 21.9 µM
  TGI: > 50 µM
SR leukemia
  GI50: 2.14 µM
  TGI: 15.3 µM
SW-620 colon
  GI50: 16.1 µM
  TGI: > 50 µM
T-47D breast
  GI50: 10.9 µM
  TGI: 33 µM
TK-10 renal
  GI50: 27 µM
  TGI: > 50 µM
U251 CNS
  GI50: 18.2 µM
  TGI: > 50 µM
UACC-257 melanoma
  GI50: 11.3 µM
  TGI: 29.4 µM
UACC-62 melanoma
  GI50: 17.2 µM
  TGI: > 50 µM
UO-31 renal
  GI50: 19.6 µM
  TGI: > 50 µM
